Consider eleven compounds from patent US20240158392A1 (Janssen Biotech, Inc., priority 2021, published 2024).

Molecules are shown by their SMILES.

In test [1] the target is T1, SIK2 (Homo sapiens, UniProt Q9H0K1). The test can be described thus: SIK2 Enzymatic Assay Version 1 (ADP Glo). The test is classed as biochemical. The gist of the method: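 Room-temperature ADP-Glo luminescence assay; SIK2 added at 0.6 nM (2× final) and preincubated with compound for 30 min. Reaction stopped with ADP-Glo Reagent for 40 min, then detection reagent for at least 30 min; no-peptide (ATP-only) wells served as negative control.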
T1 sequence (Q9H0K1 whole entry, species assumed): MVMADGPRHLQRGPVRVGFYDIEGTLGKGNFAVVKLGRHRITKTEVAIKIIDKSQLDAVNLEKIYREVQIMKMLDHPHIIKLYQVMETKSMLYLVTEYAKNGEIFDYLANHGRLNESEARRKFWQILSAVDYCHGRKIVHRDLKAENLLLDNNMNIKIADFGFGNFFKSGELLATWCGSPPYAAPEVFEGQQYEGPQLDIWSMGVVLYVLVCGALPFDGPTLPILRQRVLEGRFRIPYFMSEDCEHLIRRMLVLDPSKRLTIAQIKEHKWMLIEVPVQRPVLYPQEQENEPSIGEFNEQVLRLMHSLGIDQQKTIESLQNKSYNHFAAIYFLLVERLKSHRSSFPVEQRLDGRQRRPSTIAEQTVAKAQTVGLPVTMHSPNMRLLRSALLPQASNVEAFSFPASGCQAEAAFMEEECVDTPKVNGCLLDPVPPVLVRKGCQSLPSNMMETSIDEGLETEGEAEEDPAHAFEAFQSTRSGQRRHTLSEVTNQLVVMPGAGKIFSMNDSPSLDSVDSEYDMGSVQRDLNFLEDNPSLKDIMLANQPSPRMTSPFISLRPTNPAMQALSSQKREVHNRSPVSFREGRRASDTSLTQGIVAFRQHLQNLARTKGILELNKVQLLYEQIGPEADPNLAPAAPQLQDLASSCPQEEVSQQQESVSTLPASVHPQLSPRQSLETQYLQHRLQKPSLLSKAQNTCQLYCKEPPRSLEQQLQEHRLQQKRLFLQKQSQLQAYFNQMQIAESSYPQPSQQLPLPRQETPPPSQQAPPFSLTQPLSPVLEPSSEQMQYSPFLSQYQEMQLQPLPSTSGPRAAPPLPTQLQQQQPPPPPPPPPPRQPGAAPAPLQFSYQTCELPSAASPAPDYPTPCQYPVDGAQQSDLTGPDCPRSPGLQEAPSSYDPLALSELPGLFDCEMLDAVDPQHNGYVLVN
For orientation: ADP-Glo turns the ADP formed in a reaction into a luminescent signal.

Test [2] has as its target T1, SIK2. Briefly: SIK2 Enzymatic Assay High Version 2 (High ATP). The test is classed as biochemical. The gist of the method: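 At room temperature, enzyme (6 nM, 2× final) was preincubated with compound for 30 min, then 6 mM ATP and 400 μM HDAC5tide (both 2× final) were added for 2 h. ADP formed was measured by ADP-Glo Max (2 h reagent, 1 h detection) using luminescence.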

Where [3] appears, read: enzyme 0.6 nM, 160 μM ATP and 140 μM HDAC5tide (each 2× final concentration), 30 minutes pre-incubation, 4 hours, ADPGlo luminescence, read-out: SIK2 ADP Glo IC50 (μM) (Test Example 1).

The term IC50 denotes the point on the concentration scale where inhibition reaches its midpoint.

`N#Cc1cc(-c2ccn3nc(NC(=O)C4CC4)cc3c2)c(OC[C@H]2CNCCO2)cn1` [Example 592, N-[5-[2-cyano-5-[[(2R)-morpholin-2-yl]methoxy]-4-pyridyl]pyrazolo[1,5-a]pyridin-2-yl]cyclopropanecarboxamide]: the IC50 is 0.00486 µM at SIK2 [1] (setting [3]) and 120 nM on SIK2 [2].

With `N#Cc1cc(-c2ccn3nc(NC(=O)C4CC4)cc3c2)c(OC[C@H]2CCCNC2)cn1` [Example 593, N-[5-[2-cyano-5-[[(3S)-3-piperidyl]methoxy]-4-pyridyl]pyrazolo[1,5-a]pyridin-2-yl]cyclopropanecarboxamide], the IC50 at SIK2 [1] (setting [3]) is 0.00242 µM; against SIK2 [2], 30.7 nM.

With `N#Cc1cc(-c2ccn3nc(NC(=O)C4CC4)cc3c2)c(O[C@@H]2CCNC2)cn1` [Example 594, N-[5-[2-cyano-5-[(3R)-pyrrolidin-3-yl]oxy-4-pyridyl]pyrazolo[1,5-a]pyridin-2-yl]cyclopropanecarboxamide], the IC50 at SIK2 [1] (setting [3]) came out at 0.000627 µM; against SIK2 [2], 9.09 nM.

As to `N#CCN[C@H]1C[C@@H](COc2cnc(C#N)cc2-c2ccn3nc(NC(=O)C4CC4)cc3c2)C1` [Example 596, N-[5-[2-cyano-5-[[3-(cyanomethylamino)cyclobutyl]methoxy]-4-pyridyl]pyrazolo[1,5-a]pyridin-2-yl]cyclopropanecarboxamide], the IC50 worked out at 0.00125 µM at SIK2 [1] (setting [3]) and 14.6 nM on SIK2 [2].

In the case of `N#Cc1cc(-c2ccn3nc(NC(=O)C4CC4)cc3c2)c(OC[C@H]2C[C@@H](NC3CC3)C2)cn1` [Example 597, N-[5-[2-cyano-5-[[3-(cyclopropylamino)cyclobutyl]methoxy]-4-pyridyl]pyrazolo[1,5-a]pyridin-2-yl]cyclopropanecarboxamide], the IC50 on SIK2 [1] (setting [3]) was found to be 0.00192 µM; at SIK2 [2], 29.9 nM.

Turning to `CCOC(=O)CN[C@H]1C[C@@H](COc2cnc(C#N)cc2-c2ccn3nc(NC(=O)C4CC4)cc3c2)C1` [Example 598, ethyl 2-[[3-[[6-cyano-4-[2-(cyclopropanecarbonylamino)pyrazolo[1,5-a]pyridin-5-yl]-3-pyridyl]oxymethyl]cyclobutyl]amino]acetate], the figures for the IC50 at SIK2 [1] (setting [3]) and against SIK2 [2] were 0.0041 µM and 53.5 nM, respectively.

Turning to `Cc1cc(-c2ccn3nc(Nc4cc(C)nc(C)n4)cc3c2)c(OCC(C)(C)O)nn1` [Example 600, 1-[4-[2-[(2,6-dimethylpyrimidin-4-yl)amino]pyrazolo[1,5-a]pyridin-5-yl]-6-methyl-pyridazin-3-yl]oxy-2-methyl-propan-2-ol], the IC50 at SIK2 [1] (setting [3]) was 0.0142 µM; at SIK2 [2] it was 207 nM.

Consider `Cc1cc(Nc2cc3cc(-c4cc(OC(C)C)ncc4OCC(C)(C)C#N)ccn3n2)nc(C)n1` [Example 663, 3-[[4-[2-[(2,6-dimethylpyrimidin-4-yl)amino]pyrazolo[1,5-a]pyridin-5-yl]-6-isopropoxy-3-pyridyl]oxy]-2,2-dimethyl-propanenitrile], for which the IC50 is 0.000151 µM at SIK2 [1] (setting [3]) and under 0.838 nM on SIK2 [2].

Consider `COc1cnccc1-c1ccn2nc(NC(=O)C3CC3)cc2c1` [Example 749, N-[5-(3-methoxy-4-pyridyl)pyrazolo[1,5-a]pyridin-2-yl]cyclopropanecarboxamide], for which the figures for the IC50 at SIK2 [1] (setting [3]) and against SIK2 [2] were 0.0179 µM and 821 nM, respectively.

With `CCOc1cnc(C)cc1-c1ccn2nc(NC(=O)C3CC3)cc2c1` [Example 752, N-[5-(5-ethoxy-2-methyl-4-pyridyl)pyrazolo[1,5-a]pyridin-2-yl]cyclopropanecarboxamide], the IC50 on SIK2 [1] (setting [3]) was 0.061 µM; against SIK2 [2], 806 nM.

Take `N#Cc1cc(-c2ccn3nc(NC(=O)C4CC4)cc3c2)c(OCc2ccccc2)cn1` [Example 753, N-[5-(5-benzyloxy-2-cyano-4-pyridyl)pyrazolo[1,5-a]pyridin-2-yl]cyclopropanecarboxamide]: the 50% inhibitory concentration (IC50) is 0.00298 µM against SIK2 [1] and 483 nM on SIK2 [2].
